Where two headings read alike, the source gives them in different places.
Tests used:
Type in all cases: in vivo
[1] = system: barnyardgrass (Echinochloa crus-galli); assay: Test A greenhouse herbicide test, pre- and postemergence; conditions: for pest or weed control at 125 g/ha / pest or weed control at 500 g/ha: Echinochloa crus-galli, 240 h
Summary of the method: (§1)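 Seeds sown in loam–sand blend got a preemergence directed soil spray of compound in non-phytotoxic solvent with surfactant. Postemergence treatment was given at 2–10 cm, one- to two-leaf stage. After ~10 d in greenhouse, injury was rated visually vs untreated controls, 0 (no effect) to 100 (complete control).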

corn (Zea mays) = assay: as above; conditions: Postemergence
Summary of the method: as §1

[2] = system: foxtail, giant (giant foxtail, Setaria faberii); assay: as above; conditions: for pest or weed control at 125 g/ha / pest or weed control at 500 g/ha: Setaria faberi, 240 h
Summary of the method: as §1

[3] = system: pigweed (Amaranthus retroflexus); assay: as above; conditions: for pest or weed control at 125 g/ha / pest or weed control at 500 g/ha: Amaranthus retroflexus, 240 h
Summary of the method: as §1

[4] = system: ragweed (common ragweed, Ambrosia elatior); assay: as above; conditions: for pest or weed control at 125 g/ha / pest or weed control at 500 g/ha: Ambrosia artemisiifolia, 240 h
Summary of the method: as §1

[5] = system: blackgrass (Alopecurus myosuroides); assay: Test A greenhouse herbicide test, postemergence
Summary of the method: (§2)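 Greenhouse postemergence test: formulated chemicals sprayed on one- to two-leaf plants (2 to 10 cm), grown in loam soil blended with sand. Injury assessed visually about 10 d later against untreated controls, scored 0 (no effect) to 100 (complete control).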

[6] = system: galium (catchweed bedstraw, Galium aparine); assay: Test A greenhouse herbicide test, postemergence
Summary of the method: as §2

[7] = system: barnyardgrass (Echinochloa crus-galli); assay: Test C greenhouse herbicide test, pre- and postemergence
Summary of the method: (§3)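 Each species was treated both before emergence, in a loam–sand soil mix, and after emergence, as 1- to 4-leaf seedlings in peat-based potting medium. Plants stayed in the greenhouse 13 to 15 d, then were scored from 0 (no effect) to 100 (complete control) relative to controls.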

[8] = system: galium (catchweed bedstraw, Galium aparine); assay: as above
Summary of the method: as §3

[9] = system: wheat (winter wheat, Triticum aestivum); assay: as above
Summary of the method: as §3

[10] = system: nutsedge, yellow (yellow nutsedge, Cyperus esculentus); assay: as above
Summary of the method: as §3

[11] = Postemergence, 31 g ai/ha, 0 to 100 scale (0 no effect, 100 complete control)
[12] = Postemergence, 125 g ai/ha, scale 0 to 100, 0 is no effect, 100 is complete control
[13] = Postemergence, 250 g ai/ha, scale 0 to 100, 0 no effect, 100 complete control, 13 to 15 d
[14] = postemergence, 62 g ai/ha, scale 0 to 100, 0 no effect, 100 complete control
[15] = Postemergence, 125 g ai/ha, visual rating after approx. 10 d, 0 to 100 scale (0 no effect, 100 complete control)
[16] = Postemergence, 500 g ai/ha, 0 to 100 scale, 0 is no effect, 100 is complete control
[17] = Preemergence, 125 g ai/ha, 0 to 100 scale where 0 is no effect and 100 is complete control
[18] = Preemergence, 500 g ai/ha, 0 to 100 scale, 0 no effect, 100 complete control
[19] = 125 g ai/ha, visual rating after approx. 10 d, 0 to 100 scale (0 no effect, 100 complete control)
[20] = 500 g ai/ha, 0 to 100 scale, 0 is no effect, 100 is complete control
[21] = Preemergence, 31 g ai/ha, scale 0 to 100, 0 is no effect, 100 is complete control
[22] = Preemergence, 62 g ai/ha, scale 0 to 100, 0 is no effect, 100 is complete control
[23] = Preemergence, 125 g ai/ha, scale 0 to 100, 0 is no effect, 100 is complete control
[24] = Preemergence, 250 g ai/ha, scale 0 to 100 (0 no effect, 100 complete control)

## CC(=O)Oc1c(C)nn(C)c(=O)c1-c1c(C)oc2c(C)cc(C)cc12 [Compound 16, 5-(acetyloxy)-2,6-dimethyl-4-(2,5,7-trimethyl-3-benzofuranyl)-3(2H)-pyridazinone]
[1]; post-emergence, Postemergence, 125 g ai/ha, visual rating after approx. 10 d, 0 to 100 scale (0 no effect, 100 complete control), read-out: Plant response rating, Barnyardgrass
  pest or weed control at 125 g/ha: 20%
[1]; post-emergence, Postemergence, 500 g ai/ha, 0 to 100 scale, 0 is no effect, 100 is complete control, read-out: Barnyardgrass plant response rating
  pest or weed control at 500 g/ha: 90%
[1]; pre-emergence, Preemergence, 125 g ai/ha, 0 to 100 scale where 0 is no effect and 100 is complete control, read-out: Barnyardgrass plant response rating
  pest or weed control at 125 g/ha: 10%
[1]; pre-emergence, Preemergence, 500 g ai/ha, 0 to 100 scale, 0 no effect, 100 complete control, read-out: Plant response rating, Barnyardgrass
  pest or weed control at 500 g/ha: 70%
Corn (Zea mays); Zea mays, post-emergence, 240 h, 125 g ai/ha, visual rating after approx. 10 d, 0 to 100 scale (0 no effect, 100 complete control)
  Corn plant response rating (crop injury, 0 = no effect, 100 = complete kill) at 125 g/ha: 0%
Corn (Zea mays); Zea mays, post-emergence, 240 h, 500 g ai/ha, 0 to 100 scale, 0 is no effect, 100 is complete control, read-out: Corn plant response rating
  plant injury at 500 g/ha: 0%
[2]; post-emergence, Postemergence, 125 g ai/ha, visual rating after approx. 10 d, 0 to 100 scale (0 no effect, 100 complete control), read-out: Plant response rating, Foxtail, Giant
  pest or weed control at 125 g/ha: 20%
[2]; post-emergence, Postemergence, 500 g ai/ha, 0 to 100 scale, 0 is no effect, 100 is complete control, read-out: Foxtail, Giant plant response rating
  pest or weed control at 500 g/ha: 80%
[2]; pre-emergence, Preemergence, 125 g ai/ha, 0 to 100 scale where 0 is no effect and 100 is complete control, read-out: Foxtail, Giant plant response rating
  pest or weed control at 125 g/ha: 0%
[2]; pre-emergence, Preemergence, 500 g ai/ha, 0 to 100 scale, 0 no effect, 100 complete control, read-out: Plant response rating, Foxtail, Giant
  pest or weed control at 500 g/ha: 30%
[3]; post-emergence, Postemergence, 125 g ai/ha, visual rating after approx. 10 d, 0 to 100 scale (0 no effect, 100 complete control), read-out: Plant response rating, Pigweed
  pest or weed control at 125 g/ha: 30%
[3]; post-emergence, Postemergence, 500 g ai/ha, 0 to 100 scale, 0 is no effect, 100 is complete control, read-out: Pigweed plant response rating
  pest or weed control at 500 g/ha: 40%
[3]; pre-emergence, Preemergence, 125 g ai/ha, 0 to 100 scale where 0 is no effect and 100 is complete control, read-out: Pigweed plant response rating
  pest or weed control at 125 g/ha: 0%
[3]; pre-emergence, Preemergence, 500 g ai/ha, 0 to 100 scale, 0 no effect, 100 complete control, read-out: Plant response rating, Pigweed
  pest or weed control at 500 g/ha: 70%
[4]; post-emergence, Postemergence, 125 g ai/ha, visual rating after approx. 10 d, 0 to 100 scale (0 no effect, 100 complete control), read-out: Plant response rating, Ragweed
  pest or weed control at 125 g/ha: 30%
[4]; post-emergence, Postemergence, 500 g ai/ha, 0 to 100 scale, 0 is no effect, 100 is complete control, read-out: Ragweed plant response rating
  pest or weed control at 500 g/ha: 70%
[4]; pre-emergence, Preemergence, 125 g ai/ha, 0 to 100 scale where 0 is no effect and 100 is complete control, read-out: Ragweed plant response rating
  pest or weed control at 125 g/ha: 0%
[4]; pre-emergence, Preemergence, 500 g ai/ha, 0 to 100 scale, 0 no effect, 100 complete control, read-out: Plant response rating, Ragweed
  pest or weed control at 500 g/ha: 0%
[5]; Alopecurus myosuroides, post-emergence, 240 h, 125 g ai/ha, visual rating after approx. 10 d, 0 to 100 scale (0 no effect, 100 complete control), read-out: Plant response rating, Blackgrass
  pest or weed control at 125 g/ha: 10%
[5]; Alopecurus myosuroides, post-emergence, 240 h, 500 g ai/ha, 0 to 100 scale, 0 is no effect, 100 is complete control, read-out: Blackgrass plant response rating
  pest or weed control at 500 g/ha: 30%
[6]; Galium, post-emergence, 240 h, 125 g ai/ha, visual rating after approx. 10 d, 0 to 100 scale (0 no effect, 100 complete control), read-out: Plant response rating, Galium
  pest or weed control at 125 g/ha: 90%
[6]; Galium, post-emergence, 240 h, 500 g ai/ha, 0 to 100 scale, 0 is no effect, 100 is complete control, read-out: Galium plant response rating
  pest or weed control at 500 g/ha: 100%
[7]; [11]
  Barnyardgrass plant response rating: 5
[7]; [12]
  Plant response rating, Barnyardgrass: 70
[7]; [13]
  Plant response rating, Barnyardgrass: 90
[7]; [14]
  Barnyardgrass plant response rating: 70
[8]; [11]
  Galium plant response rating: 60
[8]; [12]
  Plant response rating, Galium: 85
[8]; [13]
  Plant response rating, Galium: 80
[8]; [14]
  Galium plant response rating: 80
[9]; [11]
  Wheat plant response rating: 0
[9]; [12]
  Plant response rating, Wheat: 0
[9]; [13]
  Plant response rating, Wheat: 0
[9]; [14]
  Wheat plant response rating: 0

## CC(=O)Oc1c(C)nn(C)c(=O)c1-c1c(C)sc2ccc(C)cc12 [Compound 25]
[1]; [15]
  Plant response rating, Barnyardgrass: 20
[1]; [16]
  Barnyardgrass plant response rating: 90
[1]; [17]
  Barnyardgrass plant response rating: 30
[1]; [18]
  Plant response rating, Barnyardgrass: 90
Corn (Zea mays); [19]
  Plant response rating, Corn: 0
Corn (Zea mays); [20]
  Corn plant response rating: 20
[2]; [15]
  Plant response rating, Foxtail, Giant: 90
[2]; [16]
  Foxtail, Giant plant response rating: 90
[2]; [17]
  Foxtail, Giant plant response rating: 90
[2]; [18]
  Plant response rating, Foxtail, Giant: 90
[3]; [15]
  Plant response rating, Pigweed: 90
[3]; [16]
  Pigweed plant response rating: 100
[3]; [17]
  Pigweed plant response rating: 100
[3]; [18]
  Plant response rating, Pigweed: 100
[4]; [15]
  Plant response rating, Ragweed: 100
[4]; [16]
  Ragweed plant response rating: 100
[4]; [17]
  Ragweed plant response rating: 90
[4]; [18]
  Plant response rating, Ragweed: 100
[5]; [19]
  Plant response rating, Blackgrass: 60
[5]; [20]
  Blackgrass plant response rating: 90
[6]; [19]
  Plant response rating, Galium: 100
[6]; [20]
  Galium plant response rating: 100
[7]; [11]
  Barnyardgrass plant response rating: 15
[7]; [12]
  Plant response rating, Barnyardgrass: 20
[7]; [13]
  Plant response rating, Barnyardgrass: 25
[7]; [21]
  Plant response rating, Barnyardgrass: 0
[7]; [22]
  Plant response rating, Barnyardgrass: 30
[7]; [23]
  Plant response rating, Barnyardgrass: 70
[7]; [24]
  Barnyardgrass plant response rating: 85
[7]; [14]
  Barnyardgrass plant response rating: 20
[8]; [11]
  Galium plant response rating: 90
[8]; [12]
  Plant response rating, Galium: 100
[8]; [13]
  Plant response rating, Galium: 95
[8]; [21]
  Plant response rating, Galium: 90
[8]; [22]
  Plant response rating, Galium: 95
[8]; [23]
  Plant response rating, Galium: 95
[8]; [24]
  Galium plant response rating: 98
[8]; [14]
  Galium plant response rating: 95
[10]; [11]
  Nutsedge, Yellow plant response rating: 65
[10]; [12]
  Plant response rating, Nutsedge, Yellow: 90
[10]; [13]
  Plant response rating, Nutsedge, Yellow: 90
[10]; [21]
  Plant response rating, Nutsedge, Yellow: 40
[10]; [22]
  Plant response rating, Nutsedge, Yellow: 30
[10]; [23]
  Plant response rating, Nutsedge, Yellow: 70
[10]; [24]
  Nutsedge, Yellow plant response rating: 80
[10]; [14]
  Nutsedge, Yellow plant response rating: 75
[9]; [11]
  Wheat plant response rating: 0
[9]; [12]
  Plant response rating, Wheat: 0
[9]; [13]
  Plant response rating, Wheat: 5
[9]; [22]
  Plant response rating, Wheat: 0
[9]; [23]
  Plant response rating, Wheat: 0
[9]; [24]
  Wheat plant response rating: 5
[9]; [14]
  Wheat plant response rating: 0
